Counter-ions that a name gives are not always drawn.
What was measured:
[1] = Dissolution rate of lyophilized J1/sucrose in 5% glucose solution (Example 1); type: physicochemical; settings: lyophilized 0.1 mg J1 and 0.2 mg sucrose, 0.5 ml 5% glucose solution
Method: The speed of dissolution of melphalan flufenamide hydrochloride (J1) by addition of sucrose to the freeze-drying process of J1 was tested. Sucrose is a formulation agent Generally Considered As Safe (GRAS) according to the FDA (US Food and Drug Administration).
A solution of J1 (5 mg) was made in tert-butanol:water 1:1 (5 ml). 100 μl of the solution was added to a vial containing 0.2 mg sucrose. The vial was covered with aluminium foil and frozen on dry ice-acetone. The vial consisted of 0.1 mg J1 and 0.2 mg sucrose. The vial with sample was thereafter freeze-dried overnight. Freeze-drying was performed on a Leybold Lyovac GT2 equipment.
A 5% glucose solution (100 ml) was prepared and the internal marker 3-methoxy-benzoic acid (0.8 mg/ml) was added to the solution.
0.5 ml of the glucose solution from step 2, was added to the freeze-dried vial with J1 sample from step 1. The vial was shaken at room temperature for 15 seconds and thereafter filtered and transferred to a glass vial for J1 concentration measurement, with HPLC. The amount of dissolved J1 was determined using HPLC and a calibration curve.

[2] = Stability test of J1 solution (HPLC), Example 6; type: physicochemical
Method: Stability of the solution containing J1 and tert-butanol:water, 1:1 (v/v), was tested. A solution comprising tert-butanol:water 1:1 (v/v) and J1 at a concentration of 1 mg/ml, was left at room temperature for 5 days.

[3] = Stability of previous preparation in DMA in a glucose solution; type: physicochemical; settings: dissolved in DMA (dimethylacetamide) in a glucose solution
Source text: In previous preparations, melphalan flufenamide was obtained from synthesis as a white powder in crystalline form. This crystalline form can only be dissolved in highly acidic aqueous solutions, which for practical manufacturing purposes is impossible. […] Therefore, previously melphalan flufenamide was instead dissolved in DMA (dimethylacetamide) in a glucose solution. The preparation is feasible but is unstable: 7% degradation/h. Furthermore, dimerization occurs and the solution turns bright yellow. This preparation was, however, unreliable and the polymerization rate varied in an unacceptable manner.

[4] = system: tumors; settings: even at lower concentrations than melphalan; cited from earlier work
[5] = tert-butanol:water 1:1 (v/v), 1 mg/ml, room temperature, 5 days

| SMILES | % of J1 dissolved in 15 seconds ([1]; room temperature) | concentration of J1 dissolved in the glucose solution during 15 seconds ([1]; shaken at room temperature 15 seconds) [mg/mL] | degradation compared with tert-butanol:water solution ([2]; J1 dissolved in an acidic ethanol-water solution) | amount of J1 by HPLC signal after 5 days [2, 5] [%] | decrease of J1 HPLC signal [2, 5] [%] | amount of J1 by HPLC signal, initial ([2]; tert-butanol:water 1:1 (v/v), 1 mg/ml, room temperature, start) [%] | degradation [3] [% degradation/h] | cell killing activity against tumors [4] |
| --- | --- | --- | --- | --- | --- | --- | --- | --- |
| CCOC(=O)[C@H](Cc1ccc(F)cc1)NC(=O)[C@@H](N)Cc1ccc(N(CCCl)CCCl)cc1 [Sample J1, melphalanyl-L-p-fluorophenylalanine ethyl ester hydrochloride] | approximately 40% | 0.08 | much more rapid | 85.5 | 11.7 | 97.2 | – | – |
| CCOC(=O)[C@H](Cc1ccc(F)cc1)NC(=O)[C@@H](N)Cc1ccc(N(CCCl)CCCl)cc1 [melphalan flufenamide, melphalanyl-L-p-fluorophenylalanine ethyl ester] | – | – | – | – | – | – | 7 | increased cell killing activity |
